Results reported in patent publication US10266548B2, “Substituted benzylindazoles for use as Bub1 kinase inhibitors in the treatment of hyperproliferative diseases” (Bayer Intellectual Property GmbH, priority 2011, dated 2019).
Structures can show the parent of a compound that is named as a salt. Where two headings read alike, the source gives them in different places.

Key:
[1] = molecular target: catalytic domain of human Bub1 (amino acids 704-1085) (Homo sapiens (Human), UniProt O43683); assay: Bub1 kinase assay (TR-FRET); format: biochemical; conditions: 10 μM ATP, 1 μM peptide substrate; read-out: Biological Assay 1: Bub1 kinase assay median IC50
Procedure, shortened: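 Phosphoserine product detected by TR-FRET (Eu-labeled anti-mouse IgG/anti-phosphoserine antibody to streptavidin-XL665) after 1 h at 22 °C. IC50 from 4-parameter logistic fit.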

HeLa cells = assay: Proliferation assay (HeLa cell line); format: cell-based; conditions: read-out: Biological Assay 2: Proliferation assay (HeLa cell line) median IC50
[2] = Homo sapiens, 96 h, 4 days, crystal violet

SMILES	IC50 [1]	IC50 (HeLa cells; [2])	IC50 (HeLa cells; Homo sapiens, 96 h)	IC50 (HeLa cells; 4 days, crystal violet)
COc1cnc(-c2nn(Cc3ccc(F)c(OC)c3Cl)c3ccccc23)nc1Nc1ccncc1 [Example 2-13-1, 2-[1-(2-chloro-4-fluoro-3-methoxybenzyl)-1H-indazol-3-yl]-5-methoxy-N-(pyridin-4-yl)pyrimidin-4-amine]	8 nM	3800 nM	–	–
CCOc1cc(F)c(Cn2nc(-c3ncc(OC(F)F)c(Nc4ccncc4)n3)c3ccccc32)c(F)c1 [Example 10-1, 5-(difluoromethoxy)-2-[1-(4-ethoxy-2,6-difluorobenzyl)-1H-indazol-3-yl]-N-(pyridin-4 yl)pyrimidin-4-amine]	12 nM	2000 nM	–	–
Fc1ccccc1Cn1nc(-c2nccc(Nc3ccncc3)n2)c2ccccc21 [Example 5-3, 2-[1-(2-fluorobenzyl)-1H-indazol-3-yl]-N-(pyridin-4-yl)pyrimidin-4-amine]	28 nM	–	7400 nM	–
COc1cnc(-c2nn(Cc3c(Cl)ccc(C(N)=O)c3Cl)c3ccccc23)nc1Nc1ccncc1 [Example 20-2, 2,4-dichloro-3-({3-[5-methoxy-4-(pyridin-4-yla-mino)pyrimidin-2-yl]-1H-indazol-1-yl}methyl) benzamide]	40 nM	3300 nM	–	–
COc1cnc(-c2nn(Cc3ccc(Cl)cc3Cl)c3ccccc23)nc1Nc1ccncc1 [Example 2-19-1, 2-[1-(2,4-dichlorobenzyl)-1H-indazol-3-yl]-5-methoxy-N-(pyridin-4-yl)pyrimidin-4-amine]	10 nM	3400 nM	–	–
COc1cc(Cn2nc(-c3ncc(OC)c(Nc4ccncc4)n3)c3ccccc32)cc(OC)c1 [Example 2-29-1, 2-[1-(3,5-dimethoxybenzyl)-1H-indazol-3-yl]-5-methoxy-N-(pyridin-4-yl)pyrimidin-4-amine]	23 nM	9000 nM	–	–
CCOC(=O)COc1cnc(-c2nn(Cc3c(F)cc(OCC)cc3F)c3ccccc23)nc1Nc1ccncc1 [Example 4-14, ethyl ({2-[1-(4-ethoxy-2,6-difluorobenzyl)-1H-indazol-3-yl]-4-(pyridin-4-ylamino)pyrimidin-5-yl}oxy)acetate]	12 nM	≥ 10000 nM	–	–
Oc1cnc(-c2nn(Cc3ccc(F)cc3)c3ccccc23)nc1Nc1ccncc1 [Example 3-4, 2-[1-(4-fluorobenzyl)-1H-indazol-3-yl]-4-(pyridin-4-ylamino) pyrimidin-5-ol]	48 nM	≥ 10000 nM	–	–
COc1cnc(-c2nn(Cc3cccc(CC(C)(C)O)c3)c3ccccc23)nc1Nc1ccncc1 [Example 9-2, 1-[3-({3-[5-methoxy-4-(pyridin-4-ylamino)pyrimidin-2-yl]-1H-indazol-1-yl}methyl)phenyl]-2-methylpropan-2-ol]	21 nM	≥ 10000 nM	–	–
COc1cnc(-c2nn(Cc3ccc(C(=O)OC(C)(C)C)cc3Cl)c3ccccc23)nc1Nc1ccncc1 [Example 2-40-1, tert-butyl 3-chloro-4-({3-[5-methoxy-4-(pyridin-4-ylamino)pyrimidin-2-yl]-1H-indazol-1-yl}methyl)benzoate]	120 nM	5600 nM	–	–
CCOC(=O)C(C)(C)c1cccc(Cn2nc(-c3ncc(OC)c(Nc4ccncc4)n3)c3ccccc32)c1 [Example 2-41-1, ethyl 2-[3-({3-[5-methoxy-4-(pyridin-4-ylamino)pyrimidin-2-yl]-1H-indazol-1-yl}methyl)phenyl]-2-methylpropanoate]	150 nM	–	7900 nM	–
COc1cnc(-c2nn(Cc3ccc(C#N)cc3)c3ccccc23)nc1Nc1ccncc1 [Example 2-42-1, 4-({3-[5-methoxy-4-(pyridin-4-ylamino)pyrimidin-2-yl]-1H-indazol-1-yl}methyl)benzonitrile]	190 nM	≥ 10000 nM	–	–
COc1ccc(Cn2nc(-c3ncc(OC)c(Nc4ccncc4F)n3)c3ccccc32)cc1 [Example 34-3, N-(3-fluoropyridin-4-yl)-5-methoxy-2-[1-(4-methoxybenzyl)-1H-indazol-3-yl]pyrimidin-4-amine]	28 nM	–	8700 nM	–
COc1cnc(-c2nn(Cc3c(F)cc(O)cc3F)c3ccccc23)nc1Nc1ccncc1C(N)=O [Example 25-4]	5.03 nM	–	–	10000 nM
COc1cnc(-c2nn(Cc3cc(C)c(C)cc3Cl)c3ccccc23)nc1Nc1ccncc1 [Example 2-3-1, 2-[1-(2-chloro-4,5-dimethylbenzyl)-1H-indazol-3-yl]-5-methoxy-N-(pyridin-4-yl)pyrimidin-4-amine]	4.4 nM	3000 nM	–	–
COc1cnc(-c2nn(Cc3c(F)cccc3F)c3ccccc23)nc1Nc1ccncc1 [Example 2-7-1, 2-[1-(2,6-difluorobenzyl)-1H-indazol-3-yl]-5-methoxy-N-(pyridin-4-yl)pyrimidin-4-amine]	4.8 nM	–	≥ 10000 nM	–

SMILES	IC50 [1]	IC50 (HeLa cells; [2])	IC50 (HeLa cells; Homo sapiens, 96 h)	IC50 (HeLa cells; 4 days, crystal violet)
COc1ccc(Cn2nc(-c3ncc(OC)c(Nc4cc(F)nc(F)c4)n3)c3ccccc32)cc1 [Example 34-2, N-(2,6-difluoropyridin-4-yl)-5-methoxy-2-[1-(4-methoxybenzyl)-1H-indazol-3-yl]pyrimidin-4-amine]	6200 nM	–	≥ 10000 nM	–
Fc1ccccc1Cn1nc(-c2ncc(OCc3nnn[nH]3)c(Nc3ccncc3)n2)c2ccccc21 [Example 4-7, 2-[1-(2-fluorobenzyl)-1H-indazol-3-yl]-N-(pyridin-4-yl)-5-(1H-tetrazol-5-ylmethoxy) pyrimidin-4-amine]	35 nM	≥ 10000 nM	–	–
COc1cnc(-c2nn(Cc3c(Cl)ccc(CO)c3Cl)c3ccccc23)nc1Nc1ccncc1 [Example 15-5, [2,4-dichloro-3-({3-[5-methoxy-4-(pyridin-4-ylamino)pyrimidin-2-yl]-1H-indazol-1-yl}methyl)phenyl] methanol hydrochloride (1:1)]	12 nM	–	–	9900 nM
CCOc1cc(F)c(Cn2nc(-c3ncc(OCCS(C)(=O)=O)c(Nc4ccncc4)n3)c3ccccc32)c(F)c1 [Example 37-1, 2-[1-(4-ethoxy-2,6-difluorobenzyl)-1H-indazol-3-yl]-5-[2-(methylsulfonyl)ethoxy]-N-(pyridin-4-yl)pyrimidin-4-amine]	5.7 nM	4200 nM	–	–
NC(=O)c1cnccc1Nc1nc(-c2nn(Cc3ccccc3F)c3ccccc23)ncc1OCCO [Example 13-5, 4-({2-[1-(2-fluorobenzyl)-1H-indazol-3-yl]-5-(2-hydroxyethoxy)pyrimidin-4-yl}amino)pyridine-3-carboxamide]	6.5 nM	≥ 10000 nM	–	–
CCOc1cc(F)c(Cn2nc(-c3ncc(O)c(Nc4ccncc4)n3)c3ccccc32)c(F)c1 [Example 3-1, 2-[1-(4-ethoxy-2,6-difluorobenzyl)-1H-indazol-3-yl]-4-(pyridin-4-ylamino)pyrimidin-5-ol]	4.7 nM	–	≥ 10000 nM	–
OC[C@H](O)COc1cnc(-c2nn(Cc3ccccc3F)c3ccccc23)nc1Nc1ccncc1 [Example 12-3]	4.8 nM	–	–	≥ 10000 nM
COc1cnc(-c2nn(Cc3ccc(S(F)(F)(F)(F)F)cc3)c3ccccc23)nc1Nc1ccncc1 [Example 2-3-3, 5-methoxy-2-{1-[4-(pentafluoro-λ^6-sulfanyl)benzyl]-1H-indazol-3-yl}-N-(pyridin-4-yl)pyrimidin-4-amine]	360 nM	8500 nM	–	–
CCOc1cc(F)c(Cn2nc(-c3ncc(OC)c(Nc4ccncc4CO)n3)c3ccccc32)c(F)c1 [Example 8-4, [4-({2-[1-(4-ethoxy-2,6-difluorobenzyl)-1H-indazol-3-yl]-5-methoxypyrimidin-4-yl}amino)pyrimidin-3-yl]methanol]	13 nM	–	–	5000 nM
CCOc1cc(F)c(Cn2nc(-c3ncc(OCCOC)c(Nc4ccncc4)n3)c3ccccc32)c(F)c1 [Example 4-10, 2-[1-(4-ethoxy-2,6-difluorobenzyl)-1H-indazol-3-yl]-5-(2-methoxyethoxy)-N-(pyridin-4-yl)pyrimidin-4-amine]	9 nM	–	4400 nM	–
CCOC(=O)c1cnccc1Nc1nc(-c2nn(Cc3ccccc3F)c3ccccc23)ncc1OCCO [Example 13-3, ethyl 4-({2-[1-(2-fluorobenzyl)-1H-indazol-3-yl]-5-(2-hydroxyethoxy)pyrimidin-4-yl}amino)pyridine-3-carboxylate]	17 nM	–	≥ 10000 nM	–
COc1cnc(-c2nn(Cc3c(Cl)ccc(C(C)(C)O)c3Cl)c3ccccc23)nc1Nc1ccncc1 [Example 9-3, 2-[2,4-dichloro-3-({3-[5-methoxy-4-(pyridin-4-ylamino)pyrimidin-2-yl]-1H-indazol-1-yl}methyl)phenyl] propan-2-ol]	23 nM	–	7000 nM	–
COc1cnc(-c2nn(Cc3c(Cl)ccc(C(=O)N(C)C)c3Cl)c3ccccc23)nc1Nc1ccncc1 [Example 20-3, 2,4-dichloro-3-({3-[5-methoxy-4-(pyridin-4-yla-mino)pyrimidin-2-yl]-1H-indazol-1-yl}methyl)-N,N-dimethyl-benzamide]	1200 nM	–	4100 nM	–
CNC(=O)c1cnccc1Nc1nc(-c2nn(Cc3ccccc3F)c3ccccc23)ncc1OCCO [Example 13-4, 4-({2-[1-(2-fluorobenzyl)-1H-indazol-3-yl]-5-(2-hydroxyethoxy)-pyrimidin-4-yl}amino)-N-methylpyridine-3-carboxamide]	4.7 nM	8000 nM	–	–
O=C(OCCO)c1cnccc1Nc1nc(-c2nn(Cc3ccccc3F)c3ccccc23)ncc1OCCO [Example 13-6, 2-hydroxyethyl 4-({2-[1-(2-fluorobenzyl)-1H-indazol-3-yl]-5-(2-hydroxyethoxy)pyrimidin-4-yl}amino)pyridine-3-carboxylate]	8.6 nM	≥ 10000 nM	–	–
